Source: ChEMBL document CHEMBL3627674, “Discovery of wrightiadione as a novel template for the TrkA kinase inhibitors” (Bioorg Med Chem Lett, 2015)

What was measured:
[1] = target: Fibroblast growth factor receptor 3 (Homo sapiens) (UniProt P22607); assay: Inhibition of FGFR3 (unknown origin) assessed as remaining activity at 10 uM by high-throughput assay relative to control
[2] = target: Ribosomal protein S6 kinase alpha-3 (Homo sapiens) (UniProt P51812); assay: Inhibition of RSK2 Kin.Dom1.1-N-terminal (unknown origin) assessed as remaining activity at 10 uM by high-throughput assay relative to control
[3] = target: Serine/threonine-protein kinase 32C (Homo sapiens) (UniProt Q86UX6); assay: Inhibition of YANK3 (unknown origin) assessed as remaining activity at 10 uM by high-throughput assay relative to control
[4] = target: Serine/threonine-protein kinase PAK 4 (Homo sapiens) (UniProt O96013); assay: Inhibition of PAK4 (unknown origin) assessed as remaining activity at 10 uM by high-throughput assay relative to control
[5] = target: ALK tyrosine kinase receptor (Homo sapiens) (UniProt Q9UM73); assay: Inhibition of ALK (unknown origin) assessed as remaining activity at 10 uM by high-throughput assay relative to control
[6] = target: Hepatocyte growth factor receptor (Homo sapiens) (UniProt P08581); assay: Inhibition of MET (unknown origin) assessed as remaining activity at 10 uM by high-throughput assay relative to control
[7] = target: Fibroblast growth factor receptor 2 (Homo sapiens) (UniProt P21802); assay: Inhibition of FGFR2 (unknown origin) assessed as remaining activity at 10 uM by high-throughput assay relative to control
[8] = target: Cyclin-dependent kinase 3 (Homo sapiens) (UniProt Q00526); assay: Inhibition of CDK3 (unknown origin) assessed as remaining activity at 10 uM by high-throughput assay relative to control
[9] = target: Tyrosine-protein kinase BTK (Homo sapiens) (UniProt Q06187); assay: Inhibition of BTK (unknown origin) assessed as remaining activity at 10 uM by high-throughput assay relative to control
[10] = target: Tyrosine-protein kinase receptor UFO (Homo sapiens) (UniProt P30530); assay: Inhibition of AXL (unknown origin) assessed as remaining activity at 10 uM by high-throughput assay relative to control
[11] = target: Tyrosine-protein kinase JAK3 (Homo sapiens) (UniProt P52333); assay: Inhibition of JAK3 JH1 catalytic domain (unknown origin) assessed as remaining activity at 10 uM by high-throughput assay relative to control
[12] = target: Serine/threonine-protein kinase PLK1 (Homo sapiens) (UniProt P53350); assay: Inhibition of PLK1 (unknown origin) assessed as remaining activity at 10 uM by high-throughput assay relative to control
[13] = tested on: Mast/stem cell growth factor receptor Kit (Homo sapiens), P10721 [D816V]; assay: Inhibition of KIT D816V mutant (unknown origin) assessed as remaining activity at 10 uM by high-throughput assay relative to control
[14] = target: Tyrosine-protein kinase JAK2 (Homo sapiens) (UniProt O60674); assay: Inhibition of JAK2 JH1 catalytic domain (unknown origin) assessed as remaining activity at 10 uM by high-throughput assay relative to control
[15] = target: Cyclin-dependent kinase 16 (Homo sapiens) (UniProt Q00536); assay: Inhibition of PCTK1 (unknown origin) assessed as remaining activity at 10 uM by high-throughput assay relative to control
[16] = target: Activin receptor type-1B (Homo sapiens) (UniProt P36896); assay: Inhibition of ACVR1B (unknown origin) assessed as remaining activity at 10 uM by high-throughput assay relative to control
[17] = target: Tyrosine-protein kinase ABL1 (Homo sapiens) (UniProt P00519); assay: Inhibition of ABL1 phosphorylation (unknown origin) assessed as remaining activity at 10 uM by high-throughput assay relative to control
[18] = tested on: Tyrosine-protein kinase ABL1 (Homo sapiens), P00519 [T315I]; assay: Inhibition of ABL1 T315I mutant phosphorylation (unknown origin) assessed as remaining activity at 10 uM by high-throughput assay relative to control
[19] = target: Platelet-derived growth factor receptor alpha (Homo sapiens) (UniProt P16234); assay: Inhibition of PDGFRA (unknown origin) assessed as remaining activity at 10 uM by high-throughput assay relative to control
[20] = tested on: Epidermal growth factor receptor (Homo sapiens), P00533 [L858R]; assay: Inhibition of EGFR L858R mutant (unknown origin) assessed as remaining activity at 10 uM by high-throughput assay relative to control; format: protein assay
[21] = target: Mitogen-activated protein kinase 11 (Homo sapiens) (UniProt Q15759); assay: Inhibition of p38-beta (unknown origin) assessed as remaining activity at 10 uM by high-throughput assay relative to control
[22] = target: Mitogen-activated protein kinase 3 (Homo sapiens) (UniProt P27361); assay: Inhibition of ERK1 (unknown origin) assessed as remaining activity at 10 uM by high-throughput assay relative to control
[23] = target: Serine/threonine-protein kinase DCLK1 (Homo sapiens) (UniProt O15075); assay: Inhibition of DCAMKL1 (unknown origin) assessed as remaining activity at 10 uM by high-throughput assay relative to control
[24] = target: Insulin receptor (Homo sapiens) (UniProt P06213); assay: Inhibition of INSR (unknown origin) assessed as remaining activity at 10 uM by high-throughput assay relative to control
[25] = target: Serine/threonine-protein kinase PAK 2 (Homo sapiens) (UniProt Q13177); assay: Inhibition of PAK2 (unknown origin) assessed as remaining activity at 10 uM by high-throughput assay relative to control
[26] = target: Mitogen-activated protein kinase 10 (Homo sapiens) (UniProt P53779); assay: Inhibition of JNK3 (unknown origin) assessed as remaining activity at 10 uM by high-throughput assay relative to control
[27] = target: Proto-oncogene tyrosine-protein kinase receptor Ret (Homo sapiens) (UniProt P07949); assay: Inhibition of RET (unknown origin) assessed as remaining activity at 10 uM by high-throughput assay relative to control
[28] = target: Testis-specific serine/threonine-protein kinase 1 (Homo sapiens) (UniProt Q9BXA7); assay: Inhibition of TSSK1B (unknown origin) assessed as remaining activity at 10 uM by high-throughput assay relative to control
[29] = target: MAP kinase-interacting serine/threonine-protein kinase 1 (Homo sapiens) (UniProt Q9BUB5); assay: Inhibition of MKNK1 (unknown origin) assessed as remaining activity at 10 uM by high-throughput assay relative to control
[30] = tested on: Tyrosine-protein kinase ABL1 (Homo sapiens), P00519 [E255K]; assay: Inhibition of ABL1 E255K mutant phosphorylation (unknown origin) assessed as remaining activity at 10 uM by high-throughput assay relative to control
[31] = target: Serine/threonine-protein kinase ULK2 (Homo sapiens) (UniProt Q8IYT8); assay: Inhibition of ULK2 (unknown origin) assessed as remaining activity at 10 uM by high-throughput assay relative to control
[32] = target: Macrophage colony-stimulating factor 1 receptor (Homo sapiens) (UniProt P07333); assay: Inhibition of CSF1R (unknown origin) assessed as remaining activity at 10 uM by high-throughput assay relative to control

Sequence of Activin receptor type-1B (Homo sapiens) (P36896 whole entry): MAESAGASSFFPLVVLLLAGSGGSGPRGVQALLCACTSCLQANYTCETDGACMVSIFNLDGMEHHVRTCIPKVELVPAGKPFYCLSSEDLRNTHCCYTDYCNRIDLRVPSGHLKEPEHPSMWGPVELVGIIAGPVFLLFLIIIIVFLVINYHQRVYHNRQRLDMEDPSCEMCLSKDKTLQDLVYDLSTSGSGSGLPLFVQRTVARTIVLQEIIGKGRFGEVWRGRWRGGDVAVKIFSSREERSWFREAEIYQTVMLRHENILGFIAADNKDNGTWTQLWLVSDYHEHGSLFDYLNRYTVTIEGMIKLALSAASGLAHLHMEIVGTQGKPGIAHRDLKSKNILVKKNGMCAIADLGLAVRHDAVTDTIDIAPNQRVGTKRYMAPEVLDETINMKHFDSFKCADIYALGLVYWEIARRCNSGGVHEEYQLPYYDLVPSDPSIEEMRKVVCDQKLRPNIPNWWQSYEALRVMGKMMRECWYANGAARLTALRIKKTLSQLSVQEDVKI
Sequence of ALK tyrosine kinase receptor (Homo sapiens) (Q9UM73 19-1620 limits assumed): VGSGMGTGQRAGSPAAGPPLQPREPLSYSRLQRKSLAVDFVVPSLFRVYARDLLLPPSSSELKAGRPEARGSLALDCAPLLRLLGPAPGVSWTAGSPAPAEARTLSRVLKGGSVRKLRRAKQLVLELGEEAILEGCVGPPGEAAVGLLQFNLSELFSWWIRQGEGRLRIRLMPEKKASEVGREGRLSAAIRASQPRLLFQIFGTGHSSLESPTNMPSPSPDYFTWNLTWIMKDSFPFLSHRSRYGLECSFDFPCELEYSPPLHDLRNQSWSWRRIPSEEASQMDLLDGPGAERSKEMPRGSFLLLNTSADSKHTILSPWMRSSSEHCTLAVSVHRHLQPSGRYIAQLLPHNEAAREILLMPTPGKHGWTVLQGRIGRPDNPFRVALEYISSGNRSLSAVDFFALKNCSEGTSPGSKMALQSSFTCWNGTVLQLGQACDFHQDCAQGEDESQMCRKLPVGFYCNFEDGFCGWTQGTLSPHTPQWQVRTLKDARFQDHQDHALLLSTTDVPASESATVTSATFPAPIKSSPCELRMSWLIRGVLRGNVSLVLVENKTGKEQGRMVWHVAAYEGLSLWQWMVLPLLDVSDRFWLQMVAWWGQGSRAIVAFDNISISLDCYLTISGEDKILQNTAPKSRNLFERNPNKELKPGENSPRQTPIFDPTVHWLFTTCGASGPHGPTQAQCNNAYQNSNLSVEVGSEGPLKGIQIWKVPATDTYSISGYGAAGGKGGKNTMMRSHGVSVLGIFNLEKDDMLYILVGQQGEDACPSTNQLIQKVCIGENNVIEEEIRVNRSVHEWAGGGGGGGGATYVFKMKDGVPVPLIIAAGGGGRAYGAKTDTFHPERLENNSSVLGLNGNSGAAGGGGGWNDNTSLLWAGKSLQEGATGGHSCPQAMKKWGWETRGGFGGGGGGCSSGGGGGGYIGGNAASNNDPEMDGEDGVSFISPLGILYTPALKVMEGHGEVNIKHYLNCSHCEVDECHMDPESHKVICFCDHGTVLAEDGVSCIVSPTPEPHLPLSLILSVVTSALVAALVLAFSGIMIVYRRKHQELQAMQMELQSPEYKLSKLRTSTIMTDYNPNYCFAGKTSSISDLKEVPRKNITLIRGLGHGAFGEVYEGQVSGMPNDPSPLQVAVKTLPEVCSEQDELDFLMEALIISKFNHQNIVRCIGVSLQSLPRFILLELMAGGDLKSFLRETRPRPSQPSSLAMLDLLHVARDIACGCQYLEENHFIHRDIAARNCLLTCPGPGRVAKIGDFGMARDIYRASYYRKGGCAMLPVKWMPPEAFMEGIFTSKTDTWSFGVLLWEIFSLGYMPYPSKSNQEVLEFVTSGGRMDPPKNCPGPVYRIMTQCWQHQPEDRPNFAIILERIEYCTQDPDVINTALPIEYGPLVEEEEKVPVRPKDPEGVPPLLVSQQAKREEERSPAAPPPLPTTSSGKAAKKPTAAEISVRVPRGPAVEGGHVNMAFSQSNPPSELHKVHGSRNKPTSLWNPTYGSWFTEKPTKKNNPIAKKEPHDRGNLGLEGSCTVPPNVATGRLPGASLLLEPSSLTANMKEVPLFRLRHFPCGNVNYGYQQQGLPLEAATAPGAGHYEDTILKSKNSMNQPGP
Sequence of Serine/threonine-protein kinase PAK 2 (Homo sapiens) (Q13177 whole entry): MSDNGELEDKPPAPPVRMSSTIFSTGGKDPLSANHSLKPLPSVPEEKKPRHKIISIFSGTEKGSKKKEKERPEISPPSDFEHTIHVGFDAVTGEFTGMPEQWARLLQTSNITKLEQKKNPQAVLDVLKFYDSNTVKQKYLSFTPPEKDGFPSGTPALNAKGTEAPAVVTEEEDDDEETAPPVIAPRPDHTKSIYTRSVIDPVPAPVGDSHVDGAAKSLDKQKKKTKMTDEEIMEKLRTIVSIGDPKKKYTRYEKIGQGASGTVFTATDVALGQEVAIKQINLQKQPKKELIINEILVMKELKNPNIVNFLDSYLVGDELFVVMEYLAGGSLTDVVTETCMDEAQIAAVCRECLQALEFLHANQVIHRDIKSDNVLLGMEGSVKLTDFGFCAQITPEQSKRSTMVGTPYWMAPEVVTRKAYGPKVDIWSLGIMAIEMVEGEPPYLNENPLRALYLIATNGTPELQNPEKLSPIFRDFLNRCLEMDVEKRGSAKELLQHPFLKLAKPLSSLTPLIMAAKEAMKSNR
Sequence of Tyrosine-protein kinase receptor UFO (Homo sapiens) (P30530 whole entry, the tested form may be a part): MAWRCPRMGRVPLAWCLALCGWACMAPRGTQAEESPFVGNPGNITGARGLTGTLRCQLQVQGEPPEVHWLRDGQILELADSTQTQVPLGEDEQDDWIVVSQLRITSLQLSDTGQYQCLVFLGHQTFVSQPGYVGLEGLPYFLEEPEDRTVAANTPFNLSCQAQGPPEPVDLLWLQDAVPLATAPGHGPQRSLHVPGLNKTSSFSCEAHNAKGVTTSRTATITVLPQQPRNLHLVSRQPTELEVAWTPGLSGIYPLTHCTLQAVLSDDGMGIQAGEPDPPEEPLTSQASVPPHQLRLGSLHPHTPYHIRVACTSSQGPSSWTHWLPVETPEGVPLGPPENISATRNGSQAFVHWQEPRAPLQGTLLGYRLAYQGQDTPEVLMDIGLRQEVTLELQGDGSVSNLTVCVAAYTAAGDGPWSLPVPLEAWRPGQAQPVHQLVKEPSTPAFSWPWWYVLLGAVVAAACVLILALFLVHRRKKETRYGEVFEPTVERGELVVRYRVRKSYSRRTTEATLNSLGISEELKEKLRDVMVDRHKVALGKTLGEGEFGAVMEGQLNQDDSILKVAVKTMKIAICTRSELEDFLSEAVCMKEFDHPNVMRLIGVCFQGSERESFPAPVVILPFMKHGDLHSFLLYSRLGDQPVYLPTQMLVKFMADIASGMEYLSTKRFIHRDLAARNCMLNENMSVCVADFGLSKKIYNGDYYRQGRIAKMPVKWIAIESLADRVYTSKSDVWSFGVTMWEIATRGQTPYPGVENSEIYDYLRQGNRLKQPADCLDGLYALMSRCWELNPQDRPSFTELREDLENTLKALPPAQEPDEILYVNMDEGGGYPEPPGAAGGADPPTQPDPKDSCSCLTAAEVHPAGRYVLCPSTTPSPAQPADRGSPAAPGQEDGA
Sequence of Fibroblast growth factor receptor 3 (Homo sapiens) (P22607 23-806 limits assumed): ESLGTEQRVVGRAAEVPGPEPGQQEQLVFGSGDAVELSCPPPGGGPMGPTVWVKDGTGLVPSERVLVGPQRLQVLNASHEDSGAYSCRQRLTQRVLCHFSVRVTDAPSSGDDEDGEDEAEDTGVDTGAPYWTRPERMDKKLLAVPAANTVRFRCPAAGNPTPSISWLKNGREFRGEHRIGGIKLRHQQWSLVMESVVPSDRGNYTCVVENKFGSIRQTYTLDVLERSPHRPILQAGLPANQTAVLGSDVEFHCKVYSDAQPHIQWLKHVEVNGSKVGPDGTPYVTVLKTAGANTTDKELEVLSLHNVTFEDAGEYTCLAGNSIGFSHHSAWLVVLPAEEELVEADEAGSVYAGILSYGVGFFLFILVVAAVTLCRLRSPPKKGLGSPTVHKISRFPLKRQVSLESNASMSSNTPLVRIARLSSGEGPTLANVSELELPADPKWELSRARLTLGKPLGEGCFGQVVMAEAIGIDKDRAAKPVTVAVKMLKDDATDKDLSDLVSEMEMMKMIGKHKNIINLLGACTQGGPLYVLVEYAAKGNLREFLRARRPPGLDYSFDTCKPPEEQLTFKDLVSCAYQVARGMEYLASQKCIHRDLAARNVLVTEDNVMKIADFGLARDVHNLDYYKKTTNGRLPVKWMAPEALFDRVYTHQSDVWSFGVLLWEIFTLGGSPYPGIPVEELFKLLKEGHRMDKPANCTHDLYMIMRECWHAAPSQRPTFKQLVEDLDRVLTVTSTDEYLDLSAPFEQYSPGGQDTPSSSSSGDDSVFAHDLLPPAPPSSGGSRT
Sequence of Serine/threonine-protein kinase DCLK1 (Homo sapiens) (O15075 whole entry): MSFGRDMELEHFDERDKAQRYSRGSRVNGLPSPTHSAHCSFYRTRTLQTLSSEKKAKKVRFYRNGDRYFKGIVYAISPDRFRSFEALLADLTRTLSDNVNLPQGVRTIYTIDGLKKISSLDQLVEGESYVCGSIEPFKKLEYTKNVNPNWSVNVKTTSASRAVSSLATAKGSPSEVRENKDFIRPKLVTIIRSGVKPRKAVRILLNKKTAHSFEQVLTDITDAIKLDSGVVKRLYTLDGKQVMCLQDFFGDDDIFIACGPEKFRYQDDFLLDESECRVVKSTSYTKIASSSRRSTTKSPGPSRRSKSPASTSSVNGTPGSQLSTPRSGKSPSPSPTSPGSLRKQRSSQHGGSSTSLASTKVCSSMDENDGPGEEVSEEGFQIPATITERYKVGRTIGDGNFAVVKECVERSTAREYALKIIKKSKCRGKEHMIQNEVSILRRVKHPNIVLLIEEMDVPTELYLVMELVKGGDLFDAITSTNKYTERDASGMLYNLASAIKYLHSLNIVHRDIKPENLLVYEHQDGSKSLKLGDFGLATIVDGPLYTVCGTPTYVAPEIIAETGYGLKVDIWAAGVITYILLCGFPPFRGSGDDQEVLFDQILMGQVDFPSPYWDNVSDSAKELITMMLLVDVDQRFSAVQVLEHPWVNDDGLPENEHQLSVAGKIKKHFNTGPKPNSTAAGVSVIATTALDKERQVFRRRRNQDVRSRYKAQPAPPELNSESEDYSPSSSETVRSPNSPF

Compound `O=C1c2ccccc2-c2c1oc1ccccc1c2=O` has an Activity [1] of 54%, an Activity [2] of 77% and an Activity [3] of 78%. The Activity [4] was 98%, the Activity [5] was 48% and the Activity [6] was 64%. For the same compound, the Activity [7] was 56%, the Activity [8] was 91% and the Activity [9] was 76%. The Activity [10] was 26%, the Activity [11] was 61% and the Activity [12] was 38%. It also gave an Activity [13] of 58%, an Activity [14] of 42% and an Activity [15] of 92%. For the same compound, the Activity [16] was 82%, the Activity [17] was 98% and the Activity [18] was 61%. It also gave an Activity [19] of 66%, an Activity [20] of 90% and an Activity [21] of 79%. The Activity [22] was 87%, the Activity [23] was 78% and the Activity [24] was 72%. For the same compound, the Activity [25] was 82%, the Activity [26] was 33% and the Activity [27] was 74%. The Activity [28] was 71%, the Activity [29] was 99% and the Activity [30] was 93%. It also gave an Activity [31] of 59% and an Activity [32] of 77%.
